Measured values from paper PMC10301432, “Antiplasmodial, Trypanocidal, and Genotoxicity In Vitro Assessment of New Hybrid α,α-Difluorophenylacetamide-statin Derivatives” (Pharmaceuticals, 2023).
Read-outs that look alike come from different tables or passages of the source.

Assays:
[1] = test system: P. falciparum parasites (W2 clone) chloroquine-resistant; assay: Antiplasmodial activity, anti-HRPII assay; format: cell-based, Plasmodium falciparum; conditions: for EC50: P. falciparum W2 clone, 24 h at 37 °C, read-out: EC50
From the text: P. falciparum W2 clone was maintained in continuous culture as previously described. […] Prior to testing, the ring-stage parasites were synchronized using sorbitol.
The test quantification was read at 450 nm on a spectrophotometer (SpectraMax340PC384, Molecular Devices Sunnyvale, CA, USA), and the drug activity was expressed as the half-maximal inhibitory concentration (EC50) compared to the drug-free controls using the curve-fitting software Origin 8.0 (OriginLab Corporation, Northampton, MA, USA).

[2] = test system: trypomastigote forms of T. cruzi (Y strain); assay: Trypanocidal activity on bloodstream trypomastigotes; format: cell-based, Trypanosoma cruzi
Description: (§1) Bloodstream trypomastigote forms (BT) of the Y strain were obtained from infected albino Swiss mice at the peak of parasitemia, isolated by differential centrifugation and resuspended in DMEM to a parasite concentration of 10^7 cells/mL in the presence of 10% of mouse blood. This suspension (100 µL) was added in the same volume of 13 (a–d) and 14 (a–d) previously prepared at twice the desired final concentrations.

T. cruzi = assay: Trypanocidal in vitro phenotypic screening, overall outcome; format: cell-based, Trypanosoma cruzi; conditions: summarized outcome
Description: as §1
Tissue culture-derived trypomastigotes (Tulahuen strain expressing the E. coli β-galactosidase gene) were maintained in L929 cell lines and collected from the supernatant after 96 h of parasite infection, following previously established protocols. Briefly, after 24 h of L929 platting (4 × 10^3 cells/well), the cultures were incubated with trypomastigotes (10:1 parasite/host cell ratio) for 2 h at 37 °C. Then, the cell cultures were rinsed to remove non-internalized parasites and then further incubated for 24 h at 37 °C. Then the infected cultures were followed using two sequential protocols. […] After this period, 50 µL chlorophenol red glycoside (500 µM) in 0.5% Nonidet P40 was added to each well and the plate was incubated for more than 18 h at 37 °C, after which the absorbance was measured at 570 nm. Then, the compounds were next evaluated using dose–response assays in which Tulahuen-infected-L929 cells were exposed to different non-toxic concentrations of each compound (0–50 µM) and then after 96 h of incubation the same procedure was conducted as above reported. Controls with untreated and Bz-treated cells are run in parallel. The results were expressed as the percent difference in the reduction between treated and untreated cells.

[3] = test system: Salmonella enterica serovar Typhimurium TA98; assay: Salmonella/microsome assay, TA98
Description: (§2) Salmonella enterica serovar Typhimurium (S. typhimurium) strains TA97, TA98, TA100, TA104 and TA102 from the authors’ stock were used as described in the mutagenicity assay.
(§3) To determine the cytotoxic effects, after 30 min pre-incubation, the assay mixtures were diluted in 0.9% NaCl (w/v) to obtain a suspension containing 2 × 10^2 cells/mL. […] The plates were then incubated at 37 °C for 24 h and the colonies counted. All the experiments were conducted in triplicate and were repeated at least twice. Statistical differences between the groups were analyzed by a two-way ANOVA (p < 0.05) and Tukey’s post hoc test.

[4] = test system: Salmonella enterica serovar Typhimurium TA104; assay: Salmonella/microsome assay, TA104
Description: as §2, §3

[5] = Salmonella/microsome assay, TA104; conditions: Salmonella enterica serovar Typhimurium, S. typhimurium TA104 with S9 mix, LC50 (bacterial cytotoxicity) TA104, presence of S9 mix
Description: as §2, §3

HepG2 cells = assay: In vitro micronuclei assay, HepG2; format: cell-based, human; conditions: HepG2; 3 h of exposure
Description: Fresh HepG2 and CHO-K1 cells were seeded at the density of 1 × 10^5 cells/mL into 24-well plates (1 mL/per well). The compounds 13 (a–d) were then added to the medium to final concentrations of 500, 1000 and 2000 µM and incubation continued for 3 h or 24 h. DMSO 10% was used as the negative control, and, BaP (80 µM) for HepG2 and MMC (5 µM) for CHO-K1 were the positive controls. After exposure to the compounds, the cells were incubated for more than 24 h under growth conditions before quantification of the micronuclei and cytotoxicity. The cytogenetic studies were carried out in triplicate as described previously (see [51]). In order to determine the mitotic index and the number of cells with micronuclei, the medium was replaced by a cold methanol-glacial acetic acid (3:1) fixative for 30 min, and the cells then rinsed with distilled water for 2 min and air dried. The fixed cells were stained with 4,6-diamidino-2-phenylindole (DAPI) ([…]) dissolved in McIlvaine buffer (0.1 M citric acid plus 0.2 M Na2HPO4, pH 7.0) for 60 min, washed with McIlvaine buffer for 5 min, briefly rinsed with distilled water and mounted in glycerol. To determine the mitotic index and the number of cells with micronuclei, 1000 cells per well (3000 cells per concentration) were analyzed under a fluorescence microscope. The results for micronuclei were presented as the percentage of cells containing micronuclei in the 3000 cells/concentration group analyzed. Cells that glowed brightly and had homogenous nuclei were considered as having normal phenotypic morphology. Apoptotic nuclei were identified by the condensed chromatin at the periphery of the nuclear membrane or by fragmented nuclear body morphology. Necrotic cells presented chromatin forms with irregularly shaped aggregates, a pyknotic nucleus (shrunken and darkly stained) and cell membrane disruption, with cellular debris spilled into the extracellular milieu. Once again, 3000 cells were counted and the percentage of viable cells was evaluated, discounting apoptotic and necrotic cells. Statistical differences between the groups were analyzed by two-way ANOVA (p < 0.01) and Tukey’s post hoc test.

in vitro = format: cell-based; conditions: mouse
Description: Cardiac cell cultures were incubated for 24 h at 37 °C with different concentrations of the compounds (up to 200 µM) diluted in DMEM (without phenol red). Their morphology and spontaneous contractibility were evaluated by light microscopy and then the cellular viability was determined by the PrestoBlue® assay. For this colorimetric bioassay, PrestoBlue® (Invitrogen, Waltham, MA, USA) was added to each well (using a 10:1 medium/dye), the plate was further incubated for 24 h followed by optical density (OD) measurement performed at 570 and 600 nm, as recommended by the manufacturer.

`CC(=O)Nc1ccc(Cl)cc1C(F)(F)C(=O)NCC[C@@H]1C[C@H](CC(=O)OC(C)(C)C)OC(C)(C)O1` [Compound 13c, tert-Butyl 2-((4R,6R)-6-(2-(2-(2-acetamido-5-chlorophenyl)-2,2-difluoroacetamido)ethyl)-2,2-dimethyl-1,3-dioxan-4-yl)acetate] showed an SI ([1]; LC50 (HepG2)/EC50 (P. falciparum)) greater than 85, an EC50 [1] of 11.8 ± 2 µM and an EC50 ([1]; Plasmodium falciparum, W2, 24 h) of less than 14 µM. For the same compound, the “Antiplasmodial Activity” value ([1]; summarized outcome) was “Yes”, the SI ([2]; LC50 (cardiac cells)/EC50 (trypomastigotes)) was greater than 17.7 and the EC50 ([2]; Trypanosoma cruzi, bloodstream trypomastigotes, Y strain, 24 h at 37 °C) was 28.2 ± 0.75 µM. The “Trypanocidal Activity” value (T. cruzi) was “Yes”, the “revertant His+ colonies TA98” value ([3]; +S9, 3 µM) was 34 ± 4 and the “revertant His+ colonies TA98” value ([3]; +S9, 15 µM) was 35 ± 3. For the same compound, the “revertant His+ colonies TA98” value ([3]; +S9, 30 µM) was 39 ± 3, the “revertant His+ colonies TA98” value ([3]; +S9, 150 µM) was 37 ± 7 and the “revertant His+ colonies TA98” value ([3]; +S9, 300 µM) was 47 ± 4. For the same compound, the “revertant His+ colonies TA98” value ([3]; +S9, 1500 µM) was 49 ± 5, the “revertant His+ colonies TA98” value ([3]; −S9, 3 µM) was 21 ± 2 and the “revertant His+ colonies TA98” value ([3]; −S9, 15 µM) was 21 ± 5. The “revertant His+ colonies TA98” value ([3]; −S9, 30 µM) was 21 ± 3, the “revertant His+ colonies TA98” value ([3]; −S9, 150 µM) was 21 ± 2 and the “revertant His+ colonies TA98” value ([3]; −S9, 300 µM) was 21 ± 1. For the same compound, the “revertant His+ colonies TA98” value ([3]; −S9, 1500 µM) was 23 ± 4, the “revertant His+ colonies TA104” value ([4]; +S9, 3 µM) was 384 ± 34 and the “revertant His+ colonies TA104” value ([4]; +S9, 15 µM) was 401 ± 31. For the same compound, the “revertant His+ colonies TA104” value ([4]; +S9, 30 µM) was 445 ± 49, the “revertant His+ colonies TA104” value ([4]; +S9, 150 µM) was 305 ± 7 and the “revertant His+ colonies TA104” value ([4]; +S9, 300 µM) was 297 ± 4. For the same compound, the “revertant His+ colonies TA104” value ([4]; +S9, 1500 µM) was “Cytotoxic”, the CC50 ([4]; read-out: LC50 (bacterial cytotoxicity) TA104, presence of S9 mix) was greater than 1200 µM and the “revertant His+ colonies TA104” value ([4]; −S9, 3 µM) was 195 ± 9. For the same compound, the “revertant His+ colonies TA104” value ([4]; −S9, 15 µM) was 199 ± 7, the “revertant His+ colonies TA104” value ([4]; −S9, 30 µM) was 192 ± 3 and the “revertant His+ colonies TA104” value ([4]; −S9, 150 µM) was 201 ± 17. For the same compound, the “revertant His+ colonies TA104” value ([4]; −S9, 300 µM) was 206 ± 8, the “revertant His+ colonies TA104” value ([4]; −S9, 1500 µM) was 241 ± 10 and the CC50 at 30 min [5] was 1390 ± 14.8 µM. The “micronuclei formation (genotoxicity)” value (HepG2 cells) was “did not induce micronuclei formation” and the CC50 at 96 h (in vitro) was 153 ± 25.2 µM.
